# B1: G-CSF: granulocyte colony-stimulating factor, given as prophylaxis for leucopenia/febrile neutropenia (protein, UniProt P09919 31-207, looked up)
# Granulocyte …: TPLGPASSLPQSFLLKCLEQVRKIQGDGAALQEKLVSECATYKLCHPEELVLLGHSLGIPWAPLSSCPSQALQLAGCLSQLHSGLFLYQGLLQALEGISPELGPTLDTLQLDVADFATTIWQQMEELGMAPALQPTQGAMPAFASAFQRRAGGVLVASHLQSFLEVSYRVLRHLAQP
# Key:
# [1] = system: progressive malignant pleural mesothelioma (MPM); test: Phase II single-arm, multi-centric trial of lurbinectedin monotherapy: efficacy (PFS, OS, response); type: in vivo, human
# Procedure: In order to evaluate the efficacy of lurbinectedin in the treatment of progressive malignant pleural mesothelioma (MPM), a Phase II single-arm, multi-centric, international trial was performed.
# (§1) The primary endpoint was progression-free survival at 12 weeks (PFS12wks), defined as the absence of progression or death due to any cause during the first 12 weeks (±2 weeks) after registration. Secondary endpoints included progression-free survival (PFS), defined as the time from registration until radiologic progression or death due to any cause, whichever occurs first; overall survival (OS), defined as the time from registration until death due to any cause; objective response rate (ORR), defined as the proportion of patients who achieved complete (CR) or partial remission (PR) during the trial treatment; disease control rate (DCR) defined as the sum of CR, PR and stable disease (SD) at least for 12 weeks (SD≥12wks); duration of disease control, defined as the time from registration to progression or death due to any cause whichever occurs first for patients who had CR, PR or SD≥12wks; and adverse events (AE). All AEs were assessed according to NCI CTCAE v4.03. Patients lost to follow-up were censored at the last date they were known to be alive.
# This trial was conducted in 6 centers in Switzerland and 3 in Italy. Subjects enrolled in this clinical trial were adult (age ≥ 18 years) patients having histologically or cytologically confirmed MPM, an Eastern Cooperative Oncology Group (ECOG) status of 0-1 and had progressed on or after one line of platinum-pemetrexed chemotherapy without being amenable to local treatment. Further inclusion criteria required an adequate hepatic, renal and bone marrow function (absolute neutrophil count ≥ 2 × 10^9 /L, platelet count ≥ 100 × 10^9 /L; aspartate aminotransferase and alanine aminotransferase ≤ 3.0 × ULN; creatinine clearance ≥ 30 mL/min/1.73).
# Eligible patients could additionally have received one prior line of immunotherapy, but more than one lines of chemotherapy, including pemetrexed rechallenge, were not allowed. Further exclusion criteria covered known brain metastases or leptomeningeal disease, history of other hematologic or primary solid tumors within five years prior to registration (with the exception of curatively treated basal or squamous cell carcinoma of the skin, properly treated in situ malignant melanoma, in situ carcinoma of the uterine cervix or pT1-2 prostate cancer with Gleason score ≤6), concomitant use of anti-cancer surgery or radiotherapy (except for local pain control or pleurodesis) and adverse events Grade ≥2 derived from previous treatment.
# (§2) Lurbinectedin was given every 3 weeks at a dose of 3.2 mg/m^2 as a 1-hour intravenous infusion through peripheral or central lines. Standard antiemetic prophylaxis (corticosteroids or serotonin (5-HT3) antagonists) was administered prior to chemotherapy. […] In case of third re-emergence of Grade 3-4 toxicity treatment was permanently discontinued. Specifically for leucopenia Grade 3-4 and/or febrile neutropenia there was mandatory secondary G-CSF prophylaxis together with dose reduction by one level.
# (§3) Patients were followed clinically and with laboratory tests at time of chemotherapy administration and additionally with contrast enhanced CT- or PET/CT scans every 6 weeks. […] In case of treatment discontinuation for any reason, adverse events were reported for 30 days after last treatment application. For those cases where lurbinectedin was stopped without manifest progression radiology scans were performed every 8 weeks during the follow-up period otherwise patients were followed-up via telephone every 12 weeks for survival status.
# A Simon two-stage design was used as presented by Simon R. (Control Clin Trials. 1989 Mar;10(1):1-10). We had set our null-hypothesis p0 at PFS12wks ≤35%, translated to a median PFS of ≤ 2 months. […]
# [2] = Phase II trial of lurbinectedin monotherapy: adverse events (NCI CTCAE v4.03) and tolerability; type: in vivo
# Description: as §1
# as §2, with “Lurbinectedin was given every 3 weeks at a dose of 3.2 mg/m^2 as a 1-hour intravenous infusion through peripheral or central lines.” left out
# as §3
molecule,measurement,setting,value
COc1ccc2[nH]c3c(c2c1)CCN[C@]31CS[C@@H]2c3c(OC(C)=O)c(C)c4c(c3[C@H](COC1=O)N1[C@@H]2[C@H]2c3c(cc(C)c(OC)c3O)C[C@@H]([C@@H]1O)N2C)OCO4 (stereo in doubt) [lurbinectedin],patients with disease control lasting for 8 months or longer,[1]; 6/22 patients,27.3%
same,median OS,[1]; <6 months progression-free interval on prior pemetrexed,8.8 months
same,median OS,[1]; >=6 months progression-free interval on prior pemetrexed,13.3 months
same,PFS12wks,[1]; additional prior immunotherapy,70%
same,median OS,[1]; additional prior immunotherapy,10.4 months
same,median PFS,[1]; additional prior immunotherapy,3.2 months
same,DCR,[1]; all 42 patients,52.4%
same,ORR,[1]; all 42 patients,4.8%
same,complete remission (CR),[1]; all 42 patients,One
same,partial remission (PR),[1]; all 42 patients,one
same,stable disease,[1]; all 42 patients,20 patients
same,PFS12wks (primary endpoint) reached,"[1]; all patients, 22/42, 90% CI 38.7-63.5, p=0.015",52.4%
same,"PFS12wks, Kaplan-Meier method at 12 weeks","[1]; all patients, 90% CI 49.7-74.4",63.5%
same,median PFS,"[1]; all patients, 95% CI 2.6-5.5, median follow-up 14.9 months",4.1 months
same,9 months PFS%,"[1]; all patients, 95% CI 4.7-24.9",12.7%
same,median OS,"[1]; all patients, 95% CI 8.8-14.7",11.1 months
same,6 months PFS%,"[1]; all patients, 95% CI 17.1-44.9",30.5%
same,12 months OS,"[1]; all patients, 95% CI 28.1-60.3",44.9%
same,3 months PFS%,"[1]; all patients, 95% CI 41.8-71.7",58.4%
same,6 months OS,"[1]; all patients, 95% CI 57.7-84.6",73.8%
same,PFS12wks,[1]; epithelioid histology,63.6%
same,median OS,[1]; epithelioid histology,12.4 months
same,median PFS,[1]; epithelioid histology,4.1 months
same,PFS12wks reached (interim analysis),"[1]; first 21 patients, Simon 2-stage, 11 patients",52.4%
same,PFS12wks,[1]; non-epithelioid histology,62.5%
same,median OS,[1]; non-epithelioid histology,10.0 months
same,median PFS,[1]; non-epithelioid histology,3.7 months
same,patients who had died at the time of analyses,"[1]; of 42, progression 23, viral pneumonitis 1, suicide 1, heart failure 1",26 patients
same,median duration of disease control,"[1]; patients with CR, PR or SD>=12wks, 95% CI 5.2-7.4",6.6 months
same,PFS12wks,[1]; prior chemotherapy alone,61.4%
same,median OS,[1]; prior chemotherapy alone,11.9 months
same,median PFS,[1]; prior chemotherapy alone,4.1 months
same,median PFS,[1]; progressed on previous platinum-pemetrexed in >=6 months,4.3 months
same,PFS12wks,[1]; progressed on previous platinum-pemetrexed in >=6 months (28 patients),67.9%
same,median PFS,[1]; progressed on previous platinum-pemetrexed within <6 months,3.0 months
same,PFS12wks,[1]; progressed on previous platinum-pemetrexed within <6 months (14 patients),53.8%
same,AEs,"[2]; Grade 5, N = 42",0 (0.0%) n (%)
same,Lurbinectedin-related AEs,"[2]; Grade 5, N = 42",0.0 (0.0%) n (%)
same,treatment-related death,[2]; N=42,no treatment-related death
same,"Abdominal pain, lurbinectedin-related AE","[2]; human, in vivo",1 (2.4%) n (%)
same,"Alkaline phosphatase increased, lurbinectedin-related AE","[2]; human, in vivo",1 (2.4%) n (%)
same,"Aspartate aminotransferase increased, lurbinectedin-related AE","[2]; human, in vivo",2 (4.8%) n (%)
same,"Blood bilirubin increased, lurbinectedin-related AE","[2]; human, in vivo",3 (7.1%) n (%)
same,"Cholangitis, lurbinectedin-related AE","[2]; human, in vivo",1 (2.4%) n (%)
same,"Confusion, lurbinectedin-related AE","[2]; human, in vivo",1 (2.4%) n (%)
same,"Cough, lurbinectedin-related AE","[2]; human, in vivo",1 (2.4%) n (%)
same,"Creatinine increased, lurbinectedin-related AE","[2]; human, in vivo",1 (2.4%) n (%)
same,"Diarrhea, lurbinectedin-related AE","[2]; human, in vivo",3 (7.1%) n (%)
same,"Dizziness, lurbinectedin-related AE","[2]; human, in vivo",2 (4.8%) n (%)
same,"Dry skin, lurbinectedin-related AE","[2]; human, in vivo",2 (4.8%) n (%)
same,"Dysgeusia, lurbinectedin-related AE","[2]; human, in vivo",1 (2.4%) n (%)
same,"Dyspepsia, lurbinectedin-related AE","[2]; human, in vivo",1 (2.4%) n (%)
same,"Dysphagia, lurbinectedin-related AE","[2]; human, in vivo",1 (2.4%) n (%)
same,"Edema limbs, lurbinectedin-related AE","[2]; human, in vivo",1 (2.4%) n (%)
same,"Febrile neutropenia, lurbinectedin-related AE","[2]; human, in vivo",4 (9.5%) n (%)
same,"Flu like symptoms, lurbinectedin-related AE","[2]; human, in vivo",1 (2.4%) n (%)
same,"Halitosis, lurbinectedin-related AE","[2]; human, in vivo",1 (2.4%) n (%)
same,"Headache, lurbinectedin-related AE","[2]; human, in vivo",1 (2.4%) n (%)
same,"Hypertension, lurbinectedin-related AE","[2]; human, in vivo",1 (2.4%) n (%)
same,"Hypomagnesemia, lurbinectedin-related AE","[2]; human, in vivo",5 (11.9%) n (%)
same,"Infection of unknown origin, lurbinectedin-related AE","[2]; human, in vivo",1 (2.4%) n (%)
same,"Infections with unknown origine, lurbinectedin-related AE","[2]; human, in vivo",1 (2.4%) n (%)
same,"Insomnia, lurbinectedin-related AE","[2]; human, in vivo",1 (2.4%) n (%)
same,"Lung infection, lurbinectedin-related AE","[2]; human, in vivo",1 (2.4%) n (%)
same,"Memory impairment, lurbinectedin-related AE","[2]; human, in vivo",1 (2.4%) n (%)
same,"Pancytopenia, lurbinectedin-related AE","[2]; human, in vivo",1 (2.4%) n (%)
same,"Productive cough, lurbinectedin-related AE","[2]; human, in vivo",1 (2.4%) n (%)
same,"Skin infection, lurbinectedin-related AE","[2]; human, in vivo",1 (2.4%) n (%)
same,"Superficial thrombophlebitis, lurbinectedin-related AE","[2]; human, in vivo",1 (2.4%) n (%)
same,"Urea increased, lurbinectedin-related AE","[2]; human, in vivo",1 (2.4%) n (%)
same,"Vertigo, lurbinectedin-related AE","[2]; human, in vivo",1 (2.4%) n (%)
same,"Watering eyes, lurbinectedin-related AE","[2]; human, in vivo",1 (2.4%) n (%)
same,"Weight loss, lurbinectedin-related AE","[2]; human, in vivo",2 (4.8%) n (%)
same,"White blood cell decreased, lurbinectedin-related AE","[2]; human, in vivo",3 (7.1%) n (%)
same,all other Grade 3-4 lurbinectedin-related toxicities,"[2]; human, in vivo",< 10%
same,dose reductions for which AEs were the reason,"[2]; human, in vivo",91.7%
same,"fatigue, lurbinectedin-related AE Grade 3-4","[2]; human, in vivo",16.7%
same,febrile neutropenia,"[2]; human, in vivo",9.5%
same,"herpes zoster, lurbinectedin-related AE","[2]; human, in vivo",1 (2.4%) n (%)
same,"neutropenia, lurbinectedin-related AE Grade 3-4","[2]; human, in vivo",23.8%
same,patients showing no lurbinectedin-related AEs,"[2]; human, in vivo",AE: adverse event; ^1: 4 patients (9.5%) showed no lurbinectedin-related AEs
same,patients with at least one adverse event (AE) of any grade,"[2]; human, in vivo",100%
same,patients with at least one dose reduction,"[2]; human, in vivo",28.6%
same,patients with lurbinectedin-related AEs Grade 3-4,"[2]; human, in vivo",47.6%
same,patients with treatment delayed at least once,"[2]; human, in vivo",50%
same,patients with treatment related AEs (any grade),"[2]; human, in vivo",90.5%
same,patients with two dose reductions,"[2]; human, in vivo",2/42
same,treatment delay caused by AEs,"[2]; human, in vivo",26.2%
same,"Mucositis oral, lurbinectedin-related AE","[2]; human, in vivo, po",1 (2.4%) n (%)
same,treatment discontinuation due to toxicity,[2]; in vivo,no treatment discontinuation due to toxicity
B1,incidence of grade 3-4 neutropenia,[2]; G-CSF given in patients on lurbinectedin,diminished
